Measured values from DBAASP.
≈ marks a conversion by molar mass, not a printed value. Values belong to the compound of their own block, whether it stands above or below them.

Legend:
Test in all cases: ≥ marks a high value that may be exact or a test limit, other limits are often not marked, values filed in µg/mL are converted to µM
[1] = system: Shigella dysenteriae ATCC 9752
[2] = system: Salmonella enterica subsp. enterica serovar Typhimurium ATCC 14028
[3] = system: Staphylococcus epidermidis ATCC 12228
[4] = system: Micrococcus luteus ATCC 10240
[5] = system: Pseudomonas aeruginosa ATCC 27853
[6] = system: Escherichia coli ATCC 25922
[7] = system: Klebsiella pneumoniae ATCC 10031
[8] = system: Staphylococcus aureus ATCC 6538P
[9] = system: Bacillus subtilis ATCC 6633
[10] = system: Staphylococcus aureus ATCC 25923
[11] = system: Candida albicans ATCC 2002
[12] = system: Pseudomonas aeruginosa PAO1
[13] = system: Escherichia coli ML-35p
[14] = system: Bacillus subtilis
[15] = system: Staphylococcus aureus ATCC 43300
[16] = system: Micrococcus luteus
[17] = system: Shigella dysenteriae
[18] = system: Candida albicans
[19] = system: Saccharomyces cerevisiae
[20] = system: Pseudomonas aeruginosa
[21] = system: Staphylococcus epidermidis
[22] = system: Proteus mirabilis
[23] = system: Serratia marcescens
[24] = system: Escherichia coli
[25] = system: Salmonella typhimurium
[26] = system: Leuconostoc lactis
[27] = system: Pasteurella multocida
[28] = system: Staphylococcus aureus
[29] = system: Streptococcus uberis
[30] = system: Bacillus cereus
[31] = system: Listeria innocua
[32] = system: Staphylococcus aureus ATCC 29213
[33] = system: Escherichia coli UB1005
[34] = system: Salmonella typhimurium ATCC 7731
[35] = system: Bacillus subtilis CMCC 63501
[36] = system: Candida albicans ATCC 10231
[37] = system: Pseudomonas aeruginosa ATCC 15442

MIC [1]: 8.6 µM (≈ 12.5 µg/mL) | MIC [2]: 17.2 µM (≈ 25 µg/mL) | MIC [3]: 4.34 µM (≈ 6.3 µg/mL) | MIC [4]: 4.34 µM (≈ 6.3 µg/mL) | MIC [5]: 8.6 µM (≈ 12.5 µg/mL) | MIC [6]: 8.6 µM (≈ 12.5 µg/mL) | MIC [7]: 4.34 µM (≈ 6.3 µg/mL) | MIC [8]: 4.34 µM (≈ 6.3 µg/mL) | MIC [9]: 4.34 µM (≈ 6.3 µg/mL)
SMILES: CC(C)C[C@H](NC(=O)[C@H](Cc1c[nH]c2ccccc12)NC(=O)[C@H](CCCCN)NC(=O)[C@H](Cc1ccccc1)NC(=O)[C@H](C)NC(=O)[C@H](Cc1c[nH]c2ccccc12)NC(=O)[C@H](CCCCN)NC(=O)[C@H](C)NC(=O)[C@@H](N)Cc1ccccc1)C(=O)N[C@@H](CCCCN)C(=O)N[C@@H](CCCCN)C(N)=O [FAKWAFKWLKK]

MIC [10]: 1.94 µM (≈ 3.75 µg/mL) | MIC [11]: 1.94 µM (≈ 3.75 µg/mL) | MIC [5]: 1.94 µM (≈ 3.75 µg/mL) | MIC [12]: 1.94 µM (≈ 3.75 µg/mL) | MIC [13]: 7.75 µM (≈ 15 µg/mL) | MIC [14]: 3.88 µM (≈ 7.5 µg/mL) | MIC [15]: 3.88 µM (≈ 7.5 µg/mL)
SMILES: CC(C)C[C@H](NC(=O)[C@H](C)NC(=O)CNC(=O)[C@H](Cc1ccccc1)NC(=O)[C@H](CC(C)C)NC(=O)[C@H](CC(C)C)NC(=O)[C@@H]1CCCN1C(=O)[C@H](Cc1ccccc1)NC(=O)[C@@H](N)Cc1ccccc1)C(=O)N[C@@H](CO)C(=O)N[C@@H](CO)C(=O)N[C@@H](Cc1cnc[nH]1)C(=O)N[C@@H](CC(C)C)C(=O)N1CCC[C@H]1C(=O)N[C@@H](CCCCN)C(=O)N[C@@H](CC(C)C)C(=O)N[C@@H](Cc1ccccc1)C(N)=O [FFPLLFGALSSHLPKLF]

MIC [10]: 11.7 µM (≈ 27.5 µg/mL) | MIC [11]: 5.84 µM (≈ 13.8 µg/mL) | MIC [5]: 23.4 µM (≈ 55 µg/mL) | MIC [12]: 23.4 µM (≈ 55 µg/mL) | MIC [13]: ≥ 46.8 µM | MIC [14]: ≥ 46.8 µM | MIC [15]: 23.4 µM (≈ 55 µg/mL)
SMILES: CC[C@H](C)[C@H](NC(=O)CNC(=O)[C@H](Cc1c[nH]c2ccccc12)NC(=O)[C@H](CS)NC(=O)[C@H](CO)NC(=O)[C@@H](NC(=O)[C@H](CCC(N)=O)NC(=O)[C@H](Cc1ccccc1)NC(=O)[C@@H]1CCCN1C(=O)[C@@H]1CCCN1C(=O)[C@H](CCCN=C(N)N)NC(=O)[C@H](CCCCN)NC(=O)[C@H](Cc1c[nH]c2ccccc12)NC(=O)[C@@H](NC(=O)[C@H](CCCCN)NC(=O)[C@@H](N)Cc1ccccc1)[C@@H](C)O)[C@@H](C)O)C(=O)N[C@H](C(=O)N[C@@H](CCCCN)C(=O)N[C@@H](CCC(=O)O)C(=O)O)[C@@H](C)CC [FKTWKRPPFQTSCWGIIKE]

MIC [16]: 0.921 µM (≈ 2.5 µg/mL) | MIC [17]: 9.21 µM (≈ 25 µg/mL) | MIC [18]: > 36.8 µM | MIC [19]: 9.21 µM (≈ 25 µg/mL) | MIC [20]: 9.21 µM (≈ 25 µg/mL) | MIC [21]: 18.4 µM (≈ 50 µg/mL) | MIC [22]: 18.4 µM (≈ 50 µg/mL) | MIC [23]: ≥ 36.8 µM | MIC [24]: 9.21 µM (≈ 25 µg/mL) | MIC [14]: 18.4 µM (≈ 50 µg/mL) | MIC [25]: 27.6 µM (≈ 75 µg/mL)
SMILES: CC[C@H](C)[C@H](NC(=O)CN)C(=O)N[C@@H](CC(C)C)C(=O)N[C@@H](CC(=O)O)C(=O)N[C@H](C(=O)N[C@@H](CC(C)C)C(=O)N[C@@H](CCCCN)C(=O)N[C@@H](CCC(N)=O)C(=O)N[C@@H](Cc1ccccc1)C(=O)N[C@@H](C)C(=O)N[C@@H](CCCCN)C(=O)NCC(=O)N[C@H](C(=O)NCC(=O)N[C@@H](CCCCN)C(=O)N[C@@H](CC(=O)O)C(=O)N[C@@H](CC(C)C)C(=O)N[C@H](C(=O)N[C@@H](CCCCN)C(=O)NCC(=O)N[C@@H](C)C(=O)N[C@@H](C)C(=O)N[C@@H](CCC(N)=O)C(=O)NCC(=O)N[C@H](C(=O)N[C@@H](CC(C)C)C(=O)N[C@@H](CO)C(=O)O)C(C)C)C(C)C)C(C)C)[C@@H](C)O [GILDTLKQFAKGVGKDLVKGAAQGVLS]

MIC [26]: 1.75 µM (≈ 3 µg/mL) | MIC [16]: 14.6 µM (≈ 25 µg/mL) | MIC [27]: ≥ 58.3 µM | MIC [28]: 14.6 µM (≈ 25 µg/mL) | MIC [21]: 7 µM (≈ 12 µg/mL) | MIC [29]: 14.6 µM (≈ 25 µg/mL) | MIC [30]: 14.6 µM (≈ 25 µg/mL) | MIC [24]: 58.3 µM (≈ 99.9 µg/mL) | MIC [31]: 3.5 µM (≈ 6 µg/mL)
SMILES: CC[C@H](C)[C@H](NC(=O)[C@@H](NC(=O)[C@H](C)NC(=O)[C@H](Cc1ccccc1)NC(=O)[C@H](CC(C)C)NC(=O)CN)C(C)C)C(=O)N[C@@H](CCCCN)C(=O)N[C@@H](CCCCN)C(=O)N[C@H](C(=O)N[C@@H](C)C(=O)N[C@@H](CO)C(=O)N[C@H](C(=O)N[C@H](C(=O)N[C@@H](CCCCN)C(=O)N[C@@H](CCCCN)C(=O)N[C@@H](CC(C)C)C(N)=O)[C@@H](C)CC)C(C)C)C(C)C [GLFAVIKKVASVIKKL]

MIC [26]: 1.15 µM (≈ 3 µg/mL) | MIC [16]: 4.59 µM (≈ 12 µg/mL) | MIC [27]: 9.57 µM (≈ 25 µg/mL) | MIC [28]: 9.57 µM (≈ 25 µg/mL) | MIC [21]: 9.57 µM (≈ 25 µg/mL) | MIC [29]: 19.1 µM (≈ 50 µg/mL) | MIC [30]: 19.1 µM (≈ 50 µg/mL) | MIC [24]: > 38.3 µM | MIC [31]: 19.1 µM (≈ 50 µg/mL)
SMILES: CC[C@H](C)[C@H](NC(=O)[C@@H](NC(=O)[C@@H]1CCCN1C(=O)[C@@H](NC(=O)[C@@H](NC(=O)[C@H](Cc1cnc[nH]1)NC(=O)[C@@H]1CCCN1C(=O)[C@@H](NC(=O)[C@@H](NC(=O)[C@H](Cc1cnc[nH]1)NC(=O)[C@H](CCCCN)NC(=O)[C@@H](NC(=O)[C@@H](NC(=O)[C@H](CO)NC(=O)CNC(=O)[C@H](CC(C)C)NC(=O)[C@@H](NC(=O)[C@H](CO)NC(=O)[C@H](CC(C)C)NC(=O)[C@H](CC(C)C)NC(=O)CN)C(C)C)C(C)C)C(C)C)C(C)C)[C@@H](C)CC)C(C)C)C(C)C)C(C)C)C(=O)N[C@@H](C)C(=O)N[C@@H](CCC(=O)O)C(=O)N[C@@H](Cc1cnc[nH]1)C(=O)N[C@@H](CC(C)C)C(N)=O [GLLSVLGSVVKHVIPHVVPVIAEHL]

MIC [2]: > 128 µM | MIC [3]: > 128 µM | MIC [32]: > 128 µM | MIC [33]: ≥ 128 µM | MIC [34]: ≥ 128 µM | MIC [5]: > 128 µM | MIC [35]: ≥ 128 µM | MIC [6]: > 128 µM
SMILES: CC[C@H](C)[C@H](NC(=O)CNC(=O)[C@H](C)NC(=O)[C@H](C)NC(=O)[C@@H](NC(=O)[C@@H](NC(=O)[C@H](CC(N)=O)NC(=O)[C@@H](NC(=O)[C@H](C)NC(=O)[C@@H](NC(=O)[C@@H]1CCCN1C(=O)[C@@H](NC(=O)[C@H](CC(C)C)NC(=O)[C@@H]1CCCN1C(=O)[C@H](Cc1c[nH]c2ccccc12)NC(=O)[C@H](Cc1ccccc1)NC(=O)[C@H](CCCN=C(N)N)NC(=O)[C@@H](N)CCCCN)C(C)C)C(C)C)[C@@H](C)CC)[C@@H](C)O)C(C)C)C(=O)N[C@@H](CC(N)=O)C(N)=O [KRFWPLVPVAINTVAAGIN]

MIC [36]: 78.9 µM (≈ 128 µg/mL) | MIC [37]: ≥ 78.9 µM | MIC [32]: 0.154 µM (≈ 0.25 µg/mL)
SMILES: CC[C@H](C)[C@H](NC(=O)[C@H](C)NC(=O)[C@@H](N)C(C)C)C(=O)N[C@@H](C)C(=O)N[C@@H](CC(C)C)C(=O)N[C@@H](CCCCN)C(=O)N[C@@H](C)C(=O)N[C@@H](C)C(=O)N[C@@H](Cc1cnc[nH]1)C(=O)N[C@@H](Cc1ccc(O)cc1)C(=O)N[C@@H](Cc1cnc[nH]1)C(=O)N[C@H](C(=O)N[C@@H](C)C(=O)N[C@@H](CCCCN)C(=O)N[C@@H](CCC(=O)O)C(=O)O)[C@@H](C)O [VAIALKAAHYHTAKE]
